These results are taken from patent US20170334899A1, “AMINO-SUBSTITUTED ISOTHIAZOLES” (Bayer Pharma Aktiengesellschaft, priority 2014, published 2017).

SMILES strings stand for the structures. pIC50: −log10 of the molar value.

In assay [1] the test system is human cervical tumor cell line HeLa (ATCC CCL-2). As to the kind of experiment: SAC-Formation - Nocodazole-Induced Assay. As to conditions: Homo sapiens, HeLa, 24 h, HeLa cells, nocodazole 0.1 μg/ml together with test compound, decrease of mitotic cells (phospho-histone H3 Ser10). Format: cell-based. Summed up: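 Loss of phospho-histone H3 Ser10-positive cells, counted against Hoechst-stained nuclei by high-content imaging, marked mitotic breakthrough. Compounds (0.005–20 μM, 0.5% DMSO) were co-dosed with 0.1 μg/ml nocodazole onto HeLa cells for 24 h at 37 °C. Curves were fitted with a four-parameter Hill equation.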

For the next assay, the target named is T1, CDK2/CycE (Homo sapiens, UniProt P24941).
T1 construct: GST; purchased ProQinase GmbH (Freiburg, Germany); host or cells: insect cells (Sf9)
As to the kind of experiment: CDK2/CycE kinase assay (TR-FRET). As to conditions: avg, read-out: CDK2 avg (IC50 [mol/l]). It is filed as biochemical. Summed up:
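Read-out is a TR-FRET 665/620 nm emission ratio from EDTA-stopped reactions detected with anti-pRB(pSer807/pSer811), Eu-labelled anti-mouse IgG and streptavidin-XL665, scaled between no-enzyme and uninhibited wells. Reaction: Sf9-expressed GST-CDK2/GST-CycE, 15 min compound preincubation, 10 μM ATP, 0.75 μM biotin-peptide, 25 min, 22° C., pH 8.0 Tris buffer.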

On to `Cc1nsc(Nc2cnc(C(F)(F)F)cn2)c1C(=O)Nc1ccc(C(=O)NC2CN(CC(F)F)C2)cc1` [Example 271, N-(4-{[1-(2,2-difluoroethyl)azetidin-3-yl]carbamoyl}phenyl)-3-methyl-5-{[5-(trifluoromethyl)pyrazin-2-yl]amino}-1,2-thiazole-4-carboxamide], for which the pIC50 in assay [1] was 5.96; on CDK2/CycE it was less than 4.70.

For `Cc1nsc(Nc2cnc(C(F)(F)F)cn2)c1C(=O)Nc1ccc(F)c(OCCCN(C)CCC(F)(F)F)c1` [Example 303, N-(4-fluoro-3-{3-[methyl(3,3,3-trifluoropropyl)amino]propoxy}phenyl)-3-methyl-5-{[5-(trifluoromethyl)pyrazin-2-yl]amino}-1,2-thiazole-4-carboxamide], the figures for the pIC50 (in assay [1]; on CDK2/CycE) were 7.29 and not above 4.70, respectively.

As to `Cc1nsc(Nc2cnc(C(F)(F)F)cn2)c1C(=O)Nc1ccc(F)c(OCC2CCN(CC(F)(F)F)CC2)c1` [Example 310, N-(4-fluoro-3-{[1-(2,2,2-trifluoroethyl)piperidin-4-yl]methoxy}phenyl)-3-methyl-5-{[5-(trifluoromethyl)pyrazin-2-yl]amino}-1,2-thiazole-4-carboxamide], the values for the pIC50 (in assay [1]; at CDK2/CycE) were 7.23 and not above 4.70, respectively.

`Cc1nsc(Nc2cnc(C(F)(F)F)cn2)c1C(=O)Nc1ccc(F)c(OCCCN(C)CC(F)(F)F)c1` [Example 302, N-(4-fluoro-3-{3-[methyl(2,2,2-trifluoroethyl)amino]propoxy}phenyl)-3-methyl-5-{[5-(trifluoromethyl)pyrazin-2-yl]amino}-1,2-thiazole-4-carboxamide]: the pIC50 in assay [1] was 7.15; on CDK2/CycE it was less than 4.70.

Take `Cc1nsc(Nc2ccc(C#N)cn2)c1C(=O)Nc1cccc(C(=O)NC(C)C)c1` [Example 255, 5-[(5-cyanopyridin-2-yl)amino]-N-[3-(isopropylcarbamoyl)phenyl]-3-methyl-1,2-thiazole-4-carboxamide]: the pIC50 in assay [1] was 5.43; on CDK2/CycE, less than 4.70.

`Cc1nsc(Nc2cnc(C(F)(F)F)cn2)c1C(=O)Nc1ccc(C(=O)N2CCN(C)CC2)cc1` [Example 262, 3-methyl-N-{4-[(4-methylpiperazin-1 yl)carbonyl]phenyl}-5-{[5-(trifluoromethyl)pyrazin-2-yl]amino}-1,2-thiazole-4-carboxamide]: the pIC50 in assay [1] is 6.59; on CDK2/CycE it was less than 4.70.

Consider `Cc1nsc(Nc2cnc(C(F)(F)F)cn2)c1C(=O)Nc1ccc(OCCCNCC(F)F)nc1` [Example 293, N-(6-{3-[(2,2-difluoroethyl)amino]propoxy}pyridin-3-yl)-3-methyl-5-{[5-(trifluoromethyl)pyrazin-2-yl]amino}-1,2-thiazole-4-carboxamide], for which the pIC50 in assay [1] was 5.51; on CDK2/CycE, less than 4.70.

With `Cc1nsc(Nc2cnc(C(F)(F)F)cn2)c1C(=O)Nc1ccc(F)c(OCCCNCC(F)(F)F)c1` [Example 306, N-(4-fluoro-3-{3-[(2,2,2-trifluoroethyl)amino]propoxy}phenyl)-3-methyl-5-{[5-(trifluoromethyl)pyrazin-2-yl]amino}-1,2-thiazole-4-carboxamide], the pIC50 is 7.62 in assay [1] and not above 4.70 at CDK2/CycE.

Take `Cc1nsc(Nc2cc(C#N)ccn2)c1C(=O)Nc1cccc(C(=O)NC(C)C)c1` [Example 254, 5-[(4-cyanopyridin-2-yl)amino]-N-[3-(isopropylcarbamoyl)phenyl]-3-methyl-1,2-thiazole-4-carboxamide]: the values for the pIC50 (in assay [1]; on CDK2/CycE) were 5.55 and less than 4.70, respectively.

`Cc1nsc(Nc2cnc(C(F)(F)F)cn2)c1C(=O)Nc1ccc(F)c(OCC2CCN(C(CF)CF)C2)c1` (centres unmarked) [Example 320, N-(3-{[1-(1,3-difluoropropan-2-yl)pyrrolidin-3-yl]methoxy}-4-fluorophenyl)-3-methyl-5-{[5-(trifluoromethyl)pyrazin-2-yl]amino}-1,2-thiazole-4-carboxamide]: the pIC50 in assay [1] is 7.26; at CDK2/CycE, not above 4.70.

With `CCNC(=O)c1cccc(NC(=O)c2c(C)nsc2Nc2cnc3ccccc3n2)c1` [Example 251, N-[3-(ethylcarbamoyl)phenyl]-3-methyl-5-(quinoxalin-2-ylamino)-1,2-thiazole-4-carboxamide], the pIC50 in assay [1] was 5.82; at CDK2/CycE, less than 4.70.

`Cc1nsc(Nc2cncc(C(F)(F)F)n2)c1C(=O)Nc1ccc(F)c(OC2CCN(CC(F)(F)F)CC2)c1` [Example 267, N-(4-fluoro-3-{[1-(2,2,2-trifluoroethyl)piperidin-4-yl]oxy}phenyl)-3-methyl-5-{[6-(trifluoromethyl)pyrazin-2-yl]amino}-1,2-thiazole-4-carboxamide]: the values for the pIC50 (in assay [1]; at CDK2/CycE) were 7.33 and less than 4.70, respectively.

`CC(=O)N1CCC(Oc2ccc(NC(=O)c3c(C)nsc3Nc3cnc4ccccc4n3)cn2)CC1` [Example 22, N-{6-[(1-acetylpiperidin-4-yl)oxy]pyridin-3-yl}-3-methyl-5-(quinoxalin-2-ylamino)-1,2-thiazole-4-carboxamide]: the pIC50 in assay [1] was 6.24; at CDK2/CycE it was not above 4.70.

For `Cc1nsc(Nc2cnc(C(F)(F)F)cn2)c1C(=O)Nc1ccc(OC2CCN(C(CF)CF)C2)nc1` (centres unmarked) [Example 313, N-(6-{[1-(1,3-difluoropropan-2-yl)pyrrolidin-3-yl]oxy}pyridin-3-yl)-3-methyl-5-{[5-(trifluoromethyl)pyrazin-2-yl]amino}-1,2-thiazole-4-carboxamide], the pIC50 in assay [1] is 6.85; at CDK2/CycE it was not above 4.70.

`Cc1nsc(Nc2cnc3ccccc3n2)c1C(=O)Nc1ccc(N2CCN(C(=O)OC(C)(C)C)CC2)nc1` [Example 248, tert-butyl 4-[5-({[3-methyl-5-(quinoxalin-2-ylamino)-1,2-thiazol-4-yl]carbonyl}amino)pyridin-2-yl]piperazine-1-carboxylate]: the pIC50 was 6.14 in assay [1] and less than 4.70 on CDK2/CycE.

As to `Cc1nsc(Nc2cnc3ccccc3n2)c1C(=O)Nc1cccc(NS(=O)(=O)C2CCN(C(=O)OC(C)(C)C)CC2)c1` [Example 258, tert-butyl 4-{[3-({[3-methyl-5-(quinoxalin-2-ylamino)-1,2-thiazol-4-yl]carbonyl}amino)phenyl]sulfamoyl} piperidine-1-carboxylate], the pIC50 in assay [1] is 6.22; at CDK2/CycE, less than 4.70.

In the case of `Cc1nsc(Nc2cncc(C(F)(F)F)n2)c1C(=O)Nc1ccc(C(=O)NC2CN(CC(F)(F)F)C2)cc1` [Example 280, 3-methyl-N-(4-{[1-(2,2,2-trifluoroethyl)azetidin-3-yl]carbamoyl}phenyl)-5-{[6-(trifluoromethyl)pyrazin-2-yl]amino}-1,2-thiazole-4-carboxamide], the pIC50 is 6.17 in assay [1] and 4.96 on CDK2/CycE.

As for `Cc1nsc(Nc2cncc(C(F)(F)F)n2)c1C(=O)Nc1ccc(OCCO)nc1` [Example 276, N-[6-(2-hydroxyethoxy)pyridin-3-yl]-3-methyl-5-{[6-(trifluoromethyl)pyrazin-2-yl]amino}-1,2-thiazole-4-carboxamide], the pIC50 in assay [1] was 6.46; at CDK2/CycE, less than 4.70.

With `Cc1nsc(Nc2cnc3ccccc3n2)c1C(=O)Nc1cccc(NS(=O)(=O)C2CCN(CC(F)F)CC2)c1` [Example 282, N-[3-({[1-(2,2-difluoroethyl)piperidin-4-yl]sulfonyl}amino)phenyl]-3-methyl-5-(quinoxalin-2-ylamino)-1,2-thiazole-4-carboxamide], the results for the pIC50 (in assay [1]; on CDK2/CycE) were 5.17 and less than 4.70, respectively.
